In PubChem BioAssay (NCI):
“And” between values parts separate entries of the source, which are not always exact repeats. Identical values can stand only once.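 Five compound concentrations were applied to cells in 96-well plates for 48 hours; endpoints were derived by simple linear interpolation of the resulting dose-response curve. The concentration for 50% growth inhibition is given as GI50. Definition used: TGI = concentration required for complete inhibition of growth.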

Assays:
Assay in all cases: NCI-60 cell line screen, 48 h
[1] = system: HOP-62 NSCLC
[2] = system: LOX IMVI melanoma
[3] = system: SN12C renal
[4] = system: MDA-MB-231 breast
[5] = system: SK-MEL-28 melanoma
[6] = system: SNB-19 CNS
[7] = system: NCI-H460 lung
[8] = system: PC-3 prostate
[9] = system: HCT-15 colon
[10] = system: CCRF-CEM leukemia

Structure (SMILES) | TGI [1] [µM] | TGI [2] [µM] | TGI [3] [µM] | TGI [4] | TGI [5] [µM] | TGI [6] [µM] | TGI [7] [µM] | TGI [8] [µM] | TGI [9] [µM] | GI50 [2] [µM] | GI50 [4] [µM] | GI50 [10] [µM] | TGI [10] [µM] | GI50 [5] | GI50 [6] [µM] | GI50 [7] [µM] | GI50 [8] [µM] | GI50 [9] [µM] | GI50 [3] [µM] | GI50 [1] [µM]
Nc1ccccc1C(=O)CC1OC(=O)c2ccccc21 (stereo not drawn) | > 100 | > 100 | > 100 | > 100 µM | > 100 | > 100 | > 100 | > 100 | > 100 | – | – | – | – | – | – | – | – | – | – | –
Cc1ccc(-c2csc(/N=C3\C(=O)Nc4ccccc43)n2)cc1 | – | 2.8 | – | 3.48 µM | 3.03 | 3.19 | 3.74 | 2.82 | 10.4 | 1.28 | 1.52 | 1.78 | 5.4 | 1.47 µM | 1.52 | 1.76 | 1.08 | 2.37 | – | –
CC(=O)[O][Ga]([Cl])[O]C(C)=O | – | > 100 | > 100 | – | > 100 | > 100 | > 100 | – | – | > 100 | – | > 100 | > 100 | > 100 µM | > 100 | > 100 | – | – | > 100 | –
COc1cccc(-c2cc(=O)c3cc(OC)ccc3[nH]2)c1 | 29.7 | – | 47.7 | 4.53 µM and 21.6 µM | > 100 | – | > 100 | > 100 | – | 0.0624 | – | 0.0281 | 0.248 | 0.612 µM and 0.0852 µM | – | 0.0823 | 0.112 | 0.0485 | 0.398 | 0.401
Clc1ccc(SC(/C=C/NNC2=NC(c3ccccc3)C(c3ccccc3)=NN2)c2ccccc2)cc1 (stereo not drawn) | > 100 | 65.7 | > 100 | – | 69.2 | > 100 | > 100 | – | > 100 | – | – | – | 73.1 | – | – | – | – | – | – | –
CN(C)CC(C)(C)C(=O)/C=C/c1ccc(/C=C/C(=O)C(C)(C)CN(C)C)cc1 | 4.51 | 1.69 | 3.55 | – | 3.5 | 4.75 | 13.9 | – | 5.49 | – | – | – | 3.78 | – | – | – | – | – | – | –
O=C1c2ccccc2C(Br)(Br)c2ccccc21 | – | > 31.6 | > 31.6 | – | > 31.6 | > 31.6 | > 31.6 | – | > 31.6 | – | – | – | > 31.6 | – | – | – | – | – | – | –
O=C(CP(=O)(O)O)NC(CC(=O)OCc1ccccc1)C(=O)OCc1ccccc1 (stereo not drawn) | > 100 | – | > 100 | > 100 µM | > 100 | > 100 | > 100 | > 100 | > 100 | – | – | – | > 100 | – | – | – | – | – | – | –
Nc1ccc(C2=NN(c3ccccc3)C(c3ccc(Cl)cc3)C2)cc1 (stereo not drawn) | 5.05 | 3.05 | 4.53 | 6.98 µM | 4.68 | 14.1 | 16.3 | – | 7.9 | 1.66 | 2.38 | 2.3 | 6.17 | 2.07 µM | 2.9 | 3.94 | – | 2.62 | 1.85 | 2.01
C[N-]c1nnnn1C.[Au+].c1ccc([PH+](c2ccccc2)c2ccccc2)cc1 | 16.8 | 5.77 | 7.92 | – | 3.13 | 6.18 | 52.7 | – | 5.72 | 2.12 | – | 0.556 | 3.44 | 1.39 µM | 2.25 | 8.54 | – | 2.17 | 3.46 | 7.89
O=C(O)CCCCCCC[C@H]1S[C@H]1CCCCCCO | > 100 | – | – | – | > 100 | > 100 | – | – | > 100 | – | – | – | – | – | – | – | – | – | – | –
CC(C)CC(NC(=O)c1cccc(O)c1O)C(=O)NCc1cc(CNC(=O)C(CC(C)C)NC(=O)c2cccc(O)c2O)cc(CNC(=O)C(CC(C)C)NC(=O)c2cccc(O)c2O)c1 (stereo not drawn) | 52.8 | 25.6 | 56.3 | – | 68.5 | 47.3 | > 100 | – | > 100 | – | – | – | 54 | – | – | – | – | – | – | –
CCOC(=O)N1CCN(c2nc(Nc3cc(C)[nH]n3)c3ccccc3n2)CC1 | > 100 | 10.1 | 52 | 81.6 µM | 91.3 | > 100 | 26.4 | – | > 100 | 1.86 | 4.97 | 10.1 | 56.2 | 12.2 µM | 10.3 | 4.42 | – | 0.992 | 2.24 | 2.81
CC(=O)[CH-]C(C)=O.CC(=O)[CH-]C(C)=O.[CH2-]CCC.[CH2-]CCC.[Sn+4] | 3.56 | 0.464 | 1.67 | – | 1.67 | 1.97 | 2.9 | – | 1.99 | 0.174 | – | 0.0483 | – | 0.436 µM | 0.663 | 1.39 | – | 0.68 | 0.346 | 2.02
[Cl-].[O-]/N=C(\c1ccccc1)c1ccccn1.[O-]/N=C(\c1ccccc1)c1ccccn1.[O-]/N=C(\c1ccccc1)c1ccccn1.[Sm+3] | > 100 | 53.3 | > 100 | – | 94.8 | > 100 | > 100 | – | > 100 | 22.4 | – | 26.6 | 98.8 | 30.5 µM | 36 | 27.3 | – | 32.4 | 33.1 | 28
COCCCNC(=O)C1C(=O)N(CCCOC)C(=O)/C1=N\N (stereo not drawn) | > 100 | – | > 100 | – | > 100 | > 100 | > 100 | – | > 100 | – | – | – | > 100 | – | – | – | – | – | – | –
COc1ccc(OC)c(/C(C)=N/NC(N)=S)c1 | > 100 | > 100 | > 100 | – | > 100 | – | > 100 | – | > 100 | – | – | – | > 100 | – | – | – | – | – | – | –
C=C(c1ccc2nc(NC(=O)OC)[nH]c2c1)c1cccs1 | > 77.4 | > 52.6 | > 100 | > 100 µM | > 100 | > 100 | > 100 | > 100 | 2.24 | – | – | – | – | – | – | – | – | – | – | –
C#Cc1cccc(N2C(=O)CCC2=O)c1 | – | 32 | 33.6 | 44.6 µM | 32.3 | 48 | 71.7 | 28.6 | 50 | – | – | – | 8.11 | – | – | – | – | – | – | –
O=c1nc(/C=C/c2ccccc2Cl)cc2n1CCN2CCO | > 100 | > 100 | > 100 | – | > 100 | – | > 100 | – | > 100 | – | – | – | > 100 | – | – | – | – | – | – | –
